Data: US10253081B2, “Glucagon analogues” (Zealand Pharma A/S, priority 2012, dated 2019)
Like-named read-outs stand apart in the source and are kept apart here. *1 amine or outer side, *2 acyl side, *3 side chain or, on linkers, in order; H or OH if unused. Where a SMILES comes first, the peptide text is derived from it. Side-chain parts run from the residue outwards. [ ]: non-standard residue; d: D form. The star is where a group is joined. γGlu = O=C(O)[C@H](CCC(=O)[*:2])N[*:1]; Palmitoyl = CCCCCCCCCCCCCCCC(=O)*; Aib = CC(C)(N)C(=O)O

Legend:
[1] = target: T1, endogenous GLP-1 receptors (Mus musculus, UniProt O35659); assay: Agonistic activity on endogenous GLP-1 receptor (cAMP, murine insulinoma cell line); type: cell-based; settings: intracellular cAMP, 15 minutes at 26° C.; read-out: EC50 GLP-1R (murine insulinoma cells)
T1 construct: Agonistic activity of the test compounds on endogenous GLP-1 receptors; endogenous in cells
T1 sequence (O35659 22-463): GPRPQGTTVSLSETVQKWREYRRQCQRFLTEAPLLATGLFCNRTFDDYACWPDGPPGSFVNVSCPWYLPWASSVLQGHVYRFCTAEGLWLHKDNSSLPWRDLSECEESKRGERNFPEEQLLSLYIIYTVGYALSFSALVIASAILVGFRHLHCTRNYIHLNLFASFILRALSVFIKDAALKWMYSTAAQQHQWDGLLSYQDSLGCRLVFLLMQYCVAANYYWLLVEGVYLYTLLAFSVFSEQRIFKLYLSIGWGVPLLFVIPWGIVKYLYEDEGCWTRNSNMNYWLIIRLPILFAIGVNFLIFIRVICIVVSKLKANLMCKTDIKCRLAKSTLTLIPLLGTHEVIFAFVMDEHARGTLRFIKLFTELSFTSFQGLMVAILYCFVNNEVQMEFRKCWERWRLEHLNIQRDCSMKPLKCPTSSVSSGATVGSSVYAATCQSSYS
Outline: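 Murine insulinoma cells were exposed 15 min at 26° C in KRBH with 0.1% DMSO to compound or GLP-1 ([…]), then cAMP was measured by AlphaScreen against a standard curve, in quadruplicate. pEC50 came from curve fits; % CTL was normalised to the maximal GLP-1 cAMP response.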

[2] = Pharmacokinetic parameters after subcutaneous and intravenous administration to mice; type: in vivo; settings: male, mouse, plasma, 20 nmol/kg, C57Bl/6J mice; for half-life: read-out: Terminal half life (converted); for MRT: read-out: Mean Residence Time
Method: Pharmacokinetic parameters of the test compounds were determined after subcutaneous and intravenous administration to C57Bl/6J mice.
8 week old male C57Bl/6J mice were obtained from Taconic (Denmark) weighing approximately 20-25 g at time of arrival at the test facility. The mice were caged in European standard cages type III with light cycle of 12-hour dark and 12-hour light (lights on 06.00). Both diet, Altromin 1324 (Altromin, Germany), and water was administered ad libitum during the whole experimental period. The 8-11 week animals were imported to the laboratory at least 7 days before the start up of the experimental procedure in order to assure proper acclimatization. After sampling the mice were euthanized by cervical dislocation.
The compounds were first dissolved in 0.096% aqueous ammonia to a nominal concentration of 2 mg/ml, and then diluted to the desired dosing strength (4 μM) in sterile PBS containing 25 mM phosphate buffer, pH 7.4. Subcutaneous and intravenous injections corresponding to 20 nmol/kg were given. The GLP-1-glucagon dual agonists were administered for subcutaneous dosing in the neck region and via a lateral tail vein for intravenous dosing.
Blood samples (250 μl) were collected from the periorbital plexus at time points 0.5, 2, 4, 6, 12, 16, 20, 24 h for subcutaneous and 10, 30 min, 3, 6, 12, 18, 24 h for intravenous administration into ice-chilled K3EDTA tubes and centrifuged for 5 minutes at 4° C. within 20 minutes of sampling. Plasma (>100 μl) was separated to ice-chilled Micronic tubes, immediately frozen, and kept at −70° C. until analysed for plasma concentration for the respective GLP-1-glucagon compound using LC-MS/MS. Individual plasma concentration-time profiles were analysed by a non-compartmental approach in WinNonLin v6.3 (Pharsight inc, Mountain View, Calif., USA), and the resulting pharmacokinetic parameters determined.

| EC50 [1] [nM] | clearance ([2]; IV) [mL/min/kg] | half-life ([2]; IV) [h] | Tmax ([2]; SC) [h] | bioavailability ([2]; SC) [%] | MRT ([2]; SC) [h] | half-life ([2]; SC) [h] | Compound |
| --- | --- | --- | --- | --- | --- | --- | --- |
| 1.41 | 0.185 | 5 | 4 | 59 | 11.2 | 5.1 | CCCCCCCCCCCCCCCC(=O)N[C@@H](CCC(=O)NCCCC[C@H](NC(=O)[C@H](CO)NC(=O)[C@H](CC(=O)O)NC(=O)[C@H](CC(C)C)NC(=O)[C@H](Cc1ccc(O)cc1)NC(=O)[C@H](CCCCN)NC(=O)[C@H](CO)NC(=O)[C@H](Cc1ccc(O)cc1)NC(=O)[C@H](CC(=O)O)NC(=O)[C@H](CO)NC(=O)[C@@H](NC(=O)[C@H](Cc1ccccc1)NC(=O)[C@@H](NC(=O)CNC(=O)[C@H](CCC(N)=O)NC(=O)[C@H](CO)NC(=O)[C@@H](N)Cc1c[nH]cn1)[C@@H](C)O)[C@@H](C)O)C(=O)N[C@@H](C)C(=O)N[C@@H](C)C(=O)N[C@@H](Cc1c[nH]cn1)C(=O)N[C@@H](CC(=O)O)C(=O)N[C@@H](Cc1ccccc1)C(=O)N[C@H](C(=O)N[C@@H](CCC(=O)O)C(=O)N[C@@H](Cc1c[nH]c2ccccc12)C(=O)N[C@@H](CC(C)C)C(=O)N[C@@H](CC(C)C)C(=O)N[C@@H](CO)C(=O)N[C@@H](C)C(=O)O)C(C)C)C(=O)O [Compound 2, H-HSQGTFTSDYSKYLDS-K(Hexadecanoyl-isoGlu)-AAHDFVEWLLSA-OH] (H-HSQGTFTSDYSKYLDSK([γGlu-Palmitoyl])AAHDFVEWLLSA-OH) |
| 0.33 | 0.355 | 3 | 2 | 80 | 6.5 | 3.7 | CCCCCCCCCCCCCCCC(=O)N[C@@H](CCC(=O)NCCCC[C@H](NC(=O)[C@H](CCC(=O)O)NC(=O)[C@H](CC(=O)O)NC(=O)[C@H](CC(C)C)NC(=O)[C@H](Cc1ccc(O)cc1)NC(=O)[C@H](CCCCN)NC(=O)[C@H](CO)NC(=O)[C@H](Cc1ccc(O)cc1)NC(=O)[C@H](CC(=O)O)NC(=O)[C@H](CO)NC(=O)[C@@H](NC(=O)[C@H](Cc1ccccc1)NC(=O)[C@@H](NC(=O)CNC(=O)[C@H](CCC(N)=O)NC(=O)[C@H](CO)NC(=O)[C@@H](N)Cc1c[nH]cn1)[C@@H](C)O)[C@@H](C)O)C(=O)N[C@@H](C)C(=O)N[C@@H](C)C(=O)N[C@@H](Cc1c[nH]cn1)C(=O)N[C@@H](CCC(=O)O)C(=O)N[C@@H](Cc1ccccc1)C(=O)N[C@H](C(=O)N[C@@H](CCC(=O)O)C(=O)N[C@@H](Cc1c[nH]c2ccccc12)C(=O)N[C@@H](CC(C)C)C(=O)N[C@@H](CCC(=O)O)C(=O)N[C@@H](CO)C(=O)N[C@@H](C)C(N)=O)C(C)C)C(=O)O [Compound 10, H-HSQGTFTSDYSKYLDE-K(Hexadecanoyl-isoGlu)-AAHEFVEWLESA-NH2] (H-HSQGTFTSDYSKYLDEK([γGlu-Palmitoyl])AAHEFVEWLESA-NH2) |
| 0.3 | 0.128 | 6 | 6 | 97 | 17.4 | 10.5 | CCCCCCCCCCCCCCCC(=O)N[C@@H](CCC(=O)NCCCC[C@H](NC(=O)[C@H](CCC(=O)O)NC(=O)[C@H](CC(=O)O)NC(=O)[C@H](CC(C)C)NC(=O)[C@H](Cc1ccc(O)cc1)NC(=O)[C@H](CCCCN)NC(=O)[C@H](CO)NC(=O)[C@H](Cc1ccc(O)cc1)NC(=O)[C@H](CC(=O)O)NC(=O)[C@H](CO)NC(=O)[C@@H](NC(=O)[C@H](Cc1ccccc1)NC(=O)[C@@H](NC(=O)CNC(=O)[C@H](CCC(N)=O)NC(=O)C(C)(C)NC(=O)[C@@H](N)Cc1c[nH]cn1)[C@@H](C)O)[C@@H](C)O)C(=O)N[C@@H](C)C(=O)N[C@@H](C)C(=O)N[C@@H](CCCCN)C(=O)N[C@@H](CC(=O)O)C(=O)N[C@@H](Cc1ccccc1)C(=O)N[C@H](C(=O)N[C@@H](CCC(=O)O)C(=O)N[C@@H](Cc1c[nH]c2ccccc12)C(=O)N[C@@H](CC(C)C)C(=O)N[C@@H](CCC(=O)O)C(=O)N[C@@H](CO)C(=O)N[C@@H](C)C(N)=O)[C@@H](C)CC)C(=O)O [Compound 15, H-H-Aib-QGTFTSDYSKYLDE-K(Hexadecanoyl-isoGlu)-AAKDFIEWLESA-NH2] |
| 0.95 | 0.128 | 3.9 | 4 | 42 | 8.1 | 4.1 | CCCCCCCCCCCCCCCC(=O)N[C@@H](CCC(=O)NCCCC[C@H](NC(=O)[C@H](CO)NC(=O)[C@H](CC(=O)O)NC(=O)[C@H](CC(C)C)NC(=O)[C@H](Cc1ccc(O)cc1)NC(=O)[C@H](CCCCN)NC(=O)[C@H](CO)NC(=O)[C@H](Cc1ccc(O)cc1)NC(=O)[C@H](CC(=O)O)NC(=O)[C@H](CO)NC(=O)[C@@H](NC(=O)[C@H](Cc1ccccc1)NC(=O)[C@@H](NC(=O)CNC(=O)[C@H](CCC(N)=O)NC(=O)[C@H](CO)NC(=O)[C@@H](N)Cc1c[nH]cn1)[C@@H](C)O)[C@@H](C)O)C(=O)N[C@@H](C)C(=O)N[C@@H](C)C(=O)N[C@@H](Cc1c[nH]cn1)C(=O)N[C@@H](CC(=O)O)C(=O)N[C@@H](Cc1ccccc1)C(=O)N[C@H](C(=O)N[C@@H](CCC(=O)O)C(=O)N[C@@H](Cc1c[nH]c2ccccc12)C(=O)N[C@@H](CC(C)C)C(=O)N[C@@H](CC(C)C)C(=O)N[C@@H](CO)C(N)=O)C(C)C)C(=O)O [Compound 8, H-HSQGTFTSDYSKYLDS-K(Hexadecanoyl-isoGlu)-AAHDFVEWLLS-NH2] (H-HSQGTFTSDYSKYLDSK([γGlu-Palmitoyl])AAHDFVEWLLS-NH2) |
| 0.72 | 0.225 | 6.2 | 4 | 64 | 12.2 | 6.1 | CCCCCCCCCCCCCCCC(=O)N[C@@H](CCC(=O)NCCCC[C@H](NC(=O)[C@H](CCC(=O)O)NC(=O)[C@H](CC(=O)O)NC(=O)[C@H](CC(C)C)NC(=O)[C@H](Cc1ccc(O)cc1)NC(=O)[C@H](CCCCN)NC(=O)[C@H](CO)NC(=O)[C@H](Cc1ccc(O)cc1)NC(=O)[C@H](CC(=O)O)NC(=O)[C@H](CO)NC(=O)[C@@H](NC(=O)[C@H](Cc1ccccc1)NC(=O)[C@@H](NC(=O)CNC(=O)[C@H](CCC(N)=O)NC(=O)C(C)(C)NC(=O)[C@@H](N)Cc1c[nH]cn1)[C@@H](C)O)[C@@H](C)O)C(=O)N[C@@H](CCCNC(=N)N)C(=O)N[C@@H](C)C(=O)N[C@@H](CCCCN)C(=O)N[C@@H](CC(=O)O)C(=O)N[C@@H](Cc1ccccc1)C(=O)N[C@H](C(=O)N[C@@H](CCC(=O)O)C(=O)N[C@@H](Cc1c[nH]c2ccccc12)C(=O)N[C@@H](CC(C)C)C(=O)N[C@@H](CC(C)C)C(=O)N[C@@H](CO)C(=O)N[C@@H](C)C(=O)O)[C@@H](C)CC)C(=O)O [Compound 14, H-H-Aib-QGTFTSDYSKYLDE-K(Hexadecanoyl-isoGlu)-RAKDFIEWLLSA-OH] (H-H[Aib]QGTFTSDYSKYLDEK([γGlu-Palmitoyl])RAKDFIEWLLSA-OH) |
| 1.06 | 0.192 | 4.1 | 6 | 52 | 9.8 | 3.9 | CCCCCCCCCCCCCCCC(=O)N[C@@H](CCC(=O)NCCCC[C@H](NC(=O)[C@H](CO)NC(=O)[C@H](CC(=O)O)NC(=O)[C@H](CC(C)C)NC(=O)[C@H](Cc1ccc(O)cc1)NC(=O)[C@H](CCCCN)NC(=O)[C@H](CO)NC(=O)[C@H](Cc1ccc(O)cc1)NC(=O)[C@H](CC(=O)O)NC(=O)[C@H](CO)NC(=O)[C@@H](NC(=O)[C@H](Cc1ccccc1)NC(=O)[C@@H](NC(=O)CNC(=O)[C@H](CCC(N)=O)NC(=O)[C@H](CO)NC(=O)[C@@H](N)Cc1c[nH]cn1)[C@@H](C)O)[C@@H](C)O)C(=O)N[C@@H](C)C(=O)N[C@@H](C)C(=O)N[C@@H](Cc1c[nH]cn1)C(=O)N[C@@H](CC(=O)O)C(=O)N[C@@H](Cc1ccccc1)C(=O)N[C@H](C(=O)N[C@@H](CCC(=O)O)C(=O)N[C@@H](Cc1c[nH]c2ccccc12)C(=O)N[C@@H](CC(C)C)C(=O)N[C@@H](CC(C)C)C(=O)N[C@@H](CCCNC(=N)N)C(=O)N[C@@H](C)C(=O)O)C(C)C)C(=O)O [Compound 3, H-HSQGTFTSDYSKYLDS-K(Hexadecanoyl-isoGlu)-AAHDFVEWLLRA-OH] (H-HSQGTFTSDYSKYLDSK([γGlu-Palmitoyl])AAHDFVEWLLRA-OH) |
